Results taken from patent US9809623B2, “α4β7 peptide monomer and dimer antagonists” (Protagonist Therapeutics, Inc., priority 2014, dated 2017).
Numbered stars: 1 amine (or outer) side, 2 acyl side, 3 side chain; on linkers, the order of the positions; unused ones are H or OH. Bridge positions count the residues as written; N and C are the ends. Square brackets hold non-standard residues; d marks the D form. Peptide text beside a SMILES is read from it. I, II: the chains in the order shown. X4 = O=C(CCOCCOCCOCCOCCOCCOCCOCCOCCOCCOCCOCCOCCOCCOCCC(=O)[*:2])[*:1]; Phe(2,4-Cl2) = N[C@@H](Cc1ccc(Cl)cc1Cl)C(=O)O; Bip = N[C@@H](Cc1ccc(-c2ccccc2)cc1)C(=O)O; 1Nal = N[C@@H](Cc1cccc2ccccc12)C(=O)O; Diglycolyl = O=C(COCC(=O)[*:2])[*:1]; NMeR = CN[C@@H](CCCNC(=N)N)C(=O)O; Pen = CC(C)(S)[C@H](N)C(=O)O

molecular target: α4β7 (Homo sapiens, UniProt P13612+P26010); test: α4β7-MAdCAM Cell Adhesion Assay (RPMI 8866 human cells); format: cell-based; set-up: host or cells: RPMI 8866 human B lymphoblastoid cells; settings: Table 3-B, Potency (α4β7); range classes; read-out: α4β7 cell (Hu) IC50
Experimental: RPMI 8866 human cells (Sigma #95041316) were cultured in RPMI 1640 HEPES medium (Invitrogen #22400-089) supplemented with 10% serum (Fetal Bovine Serum, Invitrogen #16140-071), 1 mM sodium pyruvate (Invitrogen #11360-070), 2 mM L-glutamine (Invitrogen #25030-081) and Penicillin-Streptomycin (Invitrogen #15140-122) at 100 units of penicillin and 100 μg of streptomycin per ml. The cells were washed two times in DMEM medium (ATCC #30-2002) supplemented with 0.1% BSA, 10 mM HEPES pH 7 and 1 mM MnCl2. The cells were re-suspended in supplemented DMEM medium at a density of 4×10^6 cells/ml.
A Nunc MaxiSorp plate was coated with rh MAdCAM-1/Fc Chimera (R&D #6065-MC) at 200 ng per well in 50 ul per well in 1×PBS and incubated at 4° C. overnight. The solution was then removed by shaking, blocked with 250 ul per well PBS containing 1% BSA, and incubated at 37° C. for 1 hr. The solution was removed by shaking. Peptides were diluted by serial dilution in a final volume of 50 ul per well (2× concentration). To each well, 50 ul of cells (200,000 cells) were added and the plate was incubated at 37° C., 5% CO2 for 30-45 min to allow cell adhesion. The wells were washed manually three times (100 ul per wash) with supplemented DMEM. After the final wash, 100 ul/well of supplemented DMEM and 10 ul/well of MTT reagent (ATTC cat#30-1010K) were added. The plate was incubated at 37° C., 5% CO2 for 2-3 hrs until a purple precipitate was visible. 100 ul of Detergent Reagent (ATTC cat#30-1010K) was added to each well. The plate was covered from the light, wrapped in Parafilm to prevent evaporation, and left overnight at room temperature in the dark. The plate was shaken for 5 min and the absorbance at 570 nm was measured. To calculate the dose response, the absorbance value of control wells not containing cells was subtracted from each test well.

Sequence of α4β7 (P13612 34-1032): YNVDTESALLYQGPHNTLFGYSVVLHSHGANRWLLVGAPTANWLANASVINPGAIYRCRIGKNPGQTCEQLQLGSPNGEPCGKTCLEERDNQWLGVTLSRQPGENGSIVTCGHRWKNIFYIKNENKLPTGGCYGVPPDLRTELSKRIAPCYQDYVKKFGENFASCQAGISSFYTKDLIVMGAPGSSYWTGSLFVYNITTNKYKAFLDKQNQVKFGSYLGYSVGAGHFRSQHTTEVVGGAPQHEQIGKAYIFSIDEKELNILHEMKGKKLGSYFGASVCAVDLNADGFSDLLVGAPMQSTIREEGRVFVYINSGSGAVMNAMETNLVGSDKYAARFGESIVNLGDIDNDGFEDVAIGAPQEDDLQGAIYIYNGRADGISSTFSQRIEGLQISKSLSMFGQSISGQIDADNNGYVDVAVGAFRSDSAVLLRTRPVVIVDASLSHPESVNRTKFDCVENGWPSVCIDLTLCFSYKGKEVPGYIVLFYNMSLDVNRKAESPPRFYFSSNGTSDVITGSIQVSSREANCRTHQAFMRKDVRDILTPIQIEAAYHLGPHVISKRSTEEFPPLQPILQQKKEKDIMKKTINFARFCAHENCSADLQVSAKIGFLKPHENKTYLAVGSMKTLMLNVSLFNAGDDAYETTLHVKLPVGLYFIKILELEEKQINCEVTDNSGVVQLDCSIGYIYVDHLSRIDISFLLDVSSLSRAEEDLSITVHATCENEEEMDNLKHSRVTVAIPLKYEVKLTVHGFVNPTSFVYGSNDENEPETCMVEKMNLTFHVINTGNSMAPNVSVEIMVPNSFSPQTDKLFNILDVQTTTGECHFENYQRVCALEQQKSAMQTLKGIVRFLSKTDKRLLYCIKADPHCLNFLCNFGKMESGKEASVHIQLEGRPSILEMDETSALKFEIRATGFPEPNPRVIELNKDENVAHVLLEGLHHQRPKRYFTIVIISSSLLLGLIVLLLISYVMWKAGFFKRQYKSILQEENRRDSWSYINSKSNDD
Sequence of α4β7 (P26010 20-798): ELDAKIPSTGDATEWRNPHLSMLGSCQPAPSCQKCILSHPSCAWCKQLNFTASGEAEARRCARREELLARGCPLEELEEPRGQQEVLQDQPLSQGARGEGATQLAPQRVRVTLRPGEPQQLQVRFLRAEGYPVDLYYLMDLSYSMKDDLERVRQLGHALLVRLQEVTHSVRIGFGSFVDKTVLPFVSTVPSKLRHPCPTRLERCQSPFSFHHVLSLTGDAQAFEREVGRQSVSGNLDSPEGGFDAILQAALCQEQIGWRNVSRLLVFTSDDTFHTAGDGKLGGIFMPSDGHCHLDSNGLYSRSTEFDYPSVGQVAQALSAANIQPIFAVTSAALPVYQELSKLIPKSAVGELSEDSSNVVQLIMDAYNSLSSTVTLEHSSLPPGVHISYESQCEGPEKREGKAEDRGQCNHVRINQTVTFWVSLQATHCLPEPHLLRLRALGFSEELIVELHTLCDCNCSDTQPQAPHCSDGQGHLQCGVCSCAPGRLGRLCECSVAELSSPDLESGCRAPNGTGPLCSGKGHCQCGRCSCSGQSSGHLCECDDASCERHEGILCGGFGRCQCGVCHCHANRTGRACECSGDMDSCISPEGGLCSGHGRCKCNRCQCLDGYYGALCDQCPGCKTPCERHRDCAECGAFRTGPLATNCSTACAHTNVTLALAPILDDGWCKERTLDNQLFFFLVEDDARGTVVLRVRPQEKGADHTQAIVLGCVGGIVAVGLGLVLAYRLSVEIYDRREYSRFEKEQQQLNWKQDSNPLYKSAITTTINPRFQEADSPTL

Row | SMILES | IC50 [nM]
1 | CC(=O)N[C@@H]1C(=O)N(C)[C@@H](CCCNC(=N)N)C(=O)N[C@@H](CO)C(=O)N[C@@H](CC(=O)O)C(=O)N[C@@H]([C@@H](C)O)C(=O)N[C@@H](CC(C)C)C(=O)N[C@H](C(=O)N[C@@H](Cc2ccc(Cl)cc2Cl)C(=O)N[C@H](CCC(=O)O)C(=O)N[C@H](CCCCNC(=O)COCC(=O)NCCCC[C@@H](NC(=O)[C@@H](CCC(=O)O)NC(=O)[C@H](Cc2ccc(Cl)cc2Cl)NC(=O)[C@H]2NC(=O)[C@H](CC(C)C)NC(=O)[C@H]([C@@H](C)O)NC(=O)[C@H](CC(=O)O)NC(=O)[C@H](CO)NC(=O)[C@H](CCCNC(=N)N)N(C)C(=O)[C@@H](NC(C)=O)C(C)(C)SSC2(C)C)C(N)=O)C(N)=O)C(C)(C)SSC1(C)C [compound 101] (I: Ac-[Pen][NMeR]SDTL[Pen][Phe(2,4-Cl2)][dE][dK]-NH2 / II: Ac-[Pen][NMeR]SDTL[Pen][Phe(2,4-Cl2)][dE][dK]-NH2; disulfide I:1-I:7, II:1-II:7; linker I:10-II:10 via Diglycolyl) | 50 to 100
2 | CC(=O)N[C@@H]1C(=O)N(C)[C@@H](CCCNC(=N)N)C(=O)N[C@@H](CO)C(=O)N[C@@H](CC(=O)O)C(=O)N[C@@H]([C@@H](C)O)C(=O)N[C@@H](CC(C)C)C(=O)N[C@H](C(=O)N[C@@H](Cc2c[nH]c3ccccc23)C(=O)N[C@H](Cc2ccccc2)C(=O)N[C@H](CCCCNC(=O)COCC(=O)NCCCC[C@@H](NC(=O)[C@@H](Cc2ccccc2)NC(=O)[C@H](Cc2c[nH]c3ccccc23)NC(=O)[C@H]2NC(=O)[C@H](CC(C)C)NC(=O)[C@H]([C@@H](C)O)NC(=O)[C@H](CC(=O)O)NC(=O)[C@H](CO)NC(=O)[C@H](CCCNC(=N)N)N(C)C(=O)[C@@H](NC(C)=O)C(C)(C)SSC2(C)C)C(N)=O)C(N)=O)C(C)(C)SSC1(C)C [compound 91] (I: Ac-[Pen][NMeR]SDTL[Pen]W[dF][dK]-NH2 / II: Ac-[Pen][NMeR]SDTL[Pen]W[dF][dK]-NH2; disulfide I:1-I:7, II:1-II:7; linker I:10-II:10 via Diglycolyl) | 100 to 500
3 | CC(=O)N[C@@H]1C(=O)N(C)[C@@H](CCCNC(=N)N)C(=O)N[C@@H](CO)C(=O)N[C@@H](CC(=O)O)C(=O)N[C@@H]([C@@H](C)O)C(=O)N[C@@H](CC(C)C)C(=O)N[C@H](C(=O)N[C@@H](Cc2c[nH]c3ccccc23)C(=O)N[C@@H](CC(N)=O)C(=O)N[C@H](CCCCNC(=O)COCC(=O)NCCCC[C@@H](NC(=O)[C@H](CC(N)=O)NC(=O)[C@H](Cc2c[nH]c3ccccc23)NC(=O)[C@H]2NC(=O)[C@H](CC(C)C)NC(=O)[C@H]([C@@H](C)O)NC(=O)[C@H](CC(=O)O)NC(=O)[C@H](CO)NC(=O)[C@H](CCCNC(=N)N)N(C)C(=O)[C@@H](NC(C)=O)C(C)(C)SSC2(C)C)C(N)=O)C(N)=O)C(C)(C)SSC1(C)C [compound 83] (I: Ac-[Pen][NMeR]SDTL[Pen]WN[dK]-NH2 / II: Ac-[Pen][NMeR]SDTL[Pen]WN[dK]-NH2; disulfide I:1-I:7, II:1-II:7; linker I:10-II:10 via Diglycolyl) | 50 to 100
4 | CC(=O)N[C@@H]1C(=O)N(C)[C@@H](CCCNC(=N)N)C(=O)N[C@@H](CO)C(=O)N[C@@H](CC(=O)O)C(=O)N[C@@H]([C@@H](C)O)C(=O)N[C@@H](CC(C)C)C(=O)N[C@H](C(=O)N[C@@H](Cc2c[nH]c3ccccc23)C(=O)N2CCC[C@@H]2C(=O)N[C@@H](CCCCNC(=O)COCC(=O)NCCCC[C@H](NC(=O)[C@H]2CCCN2C(=O)[C@H](Cc2c[nH]c3ccccc23)NC(=O)[C@H]2NC(=O)[C@H](CC(C)C)NC(=O)[C@H]([C@@H](C)O)NC(=O)[C@H](CC(=O)O)NC(=O)[C@H](CO)NC(=O)[C@H](CCCNC(=N)N)N(C)C(=O)[C@@H](NC(C)=O)C(C)(C)SSC2(C)C)C(N)=O)C(N)=O)C(C)(C)SSC1(C)C [compound 96] (I: Ac-[Pen][NMeR]SDTL[Pen]W[dP]K-NH2 / II: Ac-[Pen][NMeR]SDTL[Pen]W[dP]K-NH2; disulfide I:1-I:7, II:1-II:7; linker I:10-II:10 via Diglycolyl) | 50 to 100
5 | CC(=O)N[C@@H]1C(=O)N(C)[C@@H](CCCNC(=N)N)C(=O)N[C@@H](CO)C(=O)N[C@@H](CC(=O)O)C(=O)N[C@@H]([C@@H](C)O)C(=O)N[C@@H](CC(C)C)C(=O)N[C@H](C(=O)N[C@@H](Cc2c[nH]c3ccccc23)C(=O)N[C@H](CCC(=O)O)C(=O)N[C@H](CCCCNC(=O)CN(CC(=O)NCCCC[C@@H](NC(=O)[C@@H](CCC(=O)O)NC(=O)[C@H](Cc2c[nH]c3ccccc23)NC(=O)[C@H]2NC(=O)[C@H](CC(C)C)NC(=O)[C@H]([C@@H](C)O)NC(=O)[C@H](CC(=O)O)NC(=O)[C@H](CO)NC(=O)[C@H](CCCNC(=N)N)N(C)C(=O)[C@@H](NC(C)=O)C(C)(C)SSC2(C)C)C(N)=O)C(=O)CCNC(=O)CCCCC2SCC3NC(=O)NC32)C(N)=O)C(C)(C)SSC1(C)C (stereo partly drawn) [compound 71] | 25 to 50
6 | CC(=O)N[C@@H]1C(=O)N(C)[C@@H](CCCNC(=N)N)C(=O)N[C@@H](CO)C(=O)N[C@@H](CC(=O)O)C(=O)N[C@@H]([C@@H](C)O)C(=O)N[C@@H](CC(C)C)C(=O)N[C@H](C(=O)N[C@@H](Cc2ccc(-c3ccccc3)cc2)C(=O)N[C@H](CCC(=O)O)C(=O)N[C@H](CCCCNC(=O)COCC(=O)NCCCC[C@@H](NC(=O)[C@@H](CCC(=O)O)NC(=O)[C@H](Cc2ccc(-c3ccccc3)cc2)NC(=O)[C@H]2NC(=O)[C@H](CC(C)C)NC(=O)[C@H]([C@@H](C)O)NC(=O)[C@H](CC(=O)O)NC(=O)[C@H](CO)NC(=O)[C@H](CCCNC(=N)N)N(C)C(=O)[C@@H](NC(C)=O)C(C)(C)SSC2(C)C)C(N)=O)C(N)=O)C(C)(C)SSC1(C)C [compound 108] (I: Ac-[Pen][NMeR]SDTL[Pen][Bip][dE][dK]-NH2 / II: Ac-[Pen][NMeR]SDTL[Pen][Bip][dE][dK]-NH2; disulfide I:1-I:7, II:1-II:7; linker I:10-II:10 via Diglycolyl) | 10 to 25
7 | CC(=O)N[C@@H]1C(=O)N(C)[C@@H](CCCNC(=N)N)C(=O)N[C@@H](CO)C(=O)N[C@@H](CC(=O)O)C(=O)N[C@@H]([C@@H](C)O)C(=O)N[C@@H](CC(C)C)C(=O)N[C@H](C(=O)N[C@@H](Cc2c[nH]cn2)C(=O)N[C@H](CCC(=O)O)C(=O)N[C@H](CCCCNC(=O)COCC(=O)NCCCC[C@@H](NC(=O)[C@@H](CCC(=O)O)NC(=O)[C@H](Cc2c[nH]cn2)NC(=O)[C@H]2NC(=O)[C@H](CC(C)C)NC(=O)[C@H]([C@@H](C)O)NC(=O)[C@H](CC(=O)O)NC(=O)[C@H](CO)NC(=O)[C@H](CCCNC(=N)N)N(C)C(=O)[C@@H](NC(C)=O)C(C)(C)SSC2(C)C)C(N)=O)C(N)=O)C(C)(C)SSC1(C)C [compound 124] (I: Ac-[Pen][NMeR]SDTL[Pen]H[dE][dK]-NH2 / II: Ac-[Pen][NMeR]SDTL[Pen]H[dE][dK]-NH2; disulfide I:1-I:7, II:1-II:7; linker I:10-II:10 via Diglycolyl) | 100 to 500
8 | CC(=O)N[C@H]1CSSC(C)(C)[C@@H](C(=O)N[C@@H](Cc2c[nH]c3ccccc23)C(=O)N[C@H](CCCCNC(=O)CCOCCOCCOCCOCCOCCOCCOCCOCCOCCOCCOCCOCCOCCOCCC(=O)NCCCC[C@@H](NC(=O)[C@H](Cc2c[nH]c3ccccc23)NC(=O)[C@H]2NC(=O)[C@H](CC(C)C)NC(=O)[C@H]([C@@H](C)O)NC(=O)[C@H](CC(=O)O)NC(=O)[C@H](CO)NC(=O)[C@H](CCCNC(=N)N)N(C)C(=O)[C@@H](NC(C)=O)CSSC2(C)C)C(N)=O)C(N)=O)NC(=O)[C@H](CC(C)C)NC(=O)[C@H]([C@@H](C)O)NC(=O)[C@H](CC(=O)O)NC(=O)[C@H](CO)NC(=O)[C@H](CCCNC(=N)N)N(C)C1=O [compound 36] (I: Ac-C[NMeR]SDTL[Pen]W[dK]-NH2 / II: Ac-C[NMeR]SDTL[Pen]W[dK]-NH2; disulfide I:1-I:7, II:1-II:7; linker I:9-II:9 via X4) | 50 to 100
9 | CC(=O)N[C@@H]1C(=O)N(C)[C@@H](CCCNC(=N)N)C(=O)N[C@@H](CO)C(=O)N[C@@H](CC(=O)O)C(=O)N[C@@H]([C@@H](C)O)C(=O)N[C@@H](CC(C)C)C(=O)N[C@H](C(=O)N[C@@H](Cc2cccc3ccccc23)C(=O)N[C@H](CCCNC(=N)N)C(=O)N[C@H](CCCCNC(=O)COCC(=O)NCCCC[C@@H](NC(=O)[C@@H](CCCNC(=N)N)NC(=O)[C@H](Cc2cccc3ccccc23)NC(=O)[C@H]2NC(=O)[C@H](CC(C)C)NC(=O)[C@H]([C@@H](C)O)NC(=O)[C@H](CC(=O)O)NC(=O)[C@H](CO)NC(=O)[C@H](CCCNC(=N)N)N(C)C(=O)[C@@H](NC(C)=O)C(C)(C)SSC2(C)C)C(N)=O)C(N)=O)C(C)(C)SSC1(C)C [compound 114] (I: Ac-[Pen][NMeR]SDTL[Pen][1Nal][dR][dK]-NH2 / II: Ac-[Pen][NMeR]SDTL[Pen][1Nal][dR][dK]-NH2; disulfide I:1-I:7, II:1-II:7; linker I:10-II:10 via Diglycolyl) | 100 to 500
